Laboratory results: the supplement of paper PMC13380429

Experiments:
Details in all cases: 72 h
[1] = test system: Caco-2; assay: relative viability EC50 (midpoint between 100% and the lowest measured viability); higher = less toxic
[2] = test system: Calu-3; assay: as above
[3] = test system: HepG2; assay: as above
[4] = test system: U2OS; assay: as above
[5] = test system: Vero E6; assay: as above
[6] = test system: Caco-2; assay: cell viability relative to DMSO; higher = less toxic
[7] = test system: Calu-3; assay: as above
[8] = test system: HepG2; assay: as above
[9] = test system: U2OS; assay: as above
[10] = test system: Vero E6; assay: as above
[11] = test system: Caco-2; assay: drug sensitivity score (DSS) for viability; higher = more toxic; extreme values may be limits of the assay
[12] = test system: Calu-3; assay: as above
[13] = test system: HepG2; assay: as above
[14] = test system: U2OS; assay: as above
[15] = test system: Vero E6; assay: as above

| Compound | relative viability EC50 [1] [µM] | relative viability EC50 [2] [µM] | relative viability EC50 [3] [µM] | relative viability EC50 [4] [µM] | relative viability EC50 [5] [µM] | cell viability ([6]; 1 nM) [%] | cell viability ([6]; 10 nM) [%] | cell viability ([6]; 100 nM) [%] | cell viability ([6]; 1000 nM) [%] | cell viability ([6]; 10000 nM) [%] | cell viability ([7]; 1 nM) [%] | cell viability ([7]; 10 nM) [%] | cell viability ([7]; 100 nM) [%] | cell viability ([7]; 1000 nM) [%] | cell viability ([7]; 10000 nM) [%] | cell viability ([8]; 1 nM) [%] | cell viability ([8]; 10 nM) [%] | cell viability ([8]; 100 nM) [%] | cell viability ([8]; 1000 nM) [%] | cell viability ([8]; 10000 nM) [%] | cell viability ([9]; 1 nM) [%] | cell viability ([9]; 10 nM) [%] | cell viability ([9]; 100 nM) [%] | cell viability ([9]; 1000 nM) [%] | cell viability ([9]; 10000 nM) [%] | cell viability ([10]; 1 nM) [%] | cell viability ([10]; 10 nM) [%] | cell viability ([10]; 100 nM) [%] | cell viability ([10]; 1000 nM) [%] | cell viability ([10]; 10000 nM) [%] | drug sensitivity score [11] | drug sensitivity score [12] | drug sensitivity score [13] | drug sensitivity score [14] | drug sensitivity score [15] |
| --- | --- | --- | --- | --- | --- | --- | --- | --- | --- | --- | --- | --- | --- | --- | --- | --- | --- | --- | --- | --- | --- | --- | --- | --- | --- | --- | --- | --- | --- | --- | --- | --- | --- | --- | --- |
| CC(C)(O)c1ccn2c(-c3ccc(F)c(-c4ccc(F)cc4C#N)c3)cnc2c1F [TP-003] | > 10 | > 10 | > 10 | > 10 | > 10 | 98.7 | 96 | 93.6 | 103 | 95.6 | 106 | 91.9 | 102 | 114 | 92.7 | 98.3 | 96.4 | 97.9 | 103 | 102 | 96.7 | 94.1 | 104 | 96.5 | 99.4 | 97.6 | 99.1 | 92.3 | 103 | 103 | 0 | 0 | 0 | 0 | 0 |
| CN1CCN(Cc2ccc(Nc3ncc(Cl)c(Nc4ccccc4S(=O)(=O)N(C)C)n3)cc2)CC1 [TP-0903] | 1.69 | > 10 | 0.948 | 2.06 | 1.51 | 109 | 96.3 | 102 | 85.9 | 33.4 | 92.3 | 92 | 89 | 110 | 80.2 | 107 | 109 | 99.8 | 50.4 | 7 | 95 | 98.2 | 95.1 | 89.1 | 21 | 112 | 105 | 103 | 75.8 | 7.4 | 5.9 | 0.3 | 11.2 | 6.2 | 8.8 |
| Cc1ccc(-c2ccc(F)cc2COc2ccc(CCC(=O)O)cc2)cc1 [TUG-891] | > 10 | > 10 | > 10 | > 10 | > 10 | 93.8 | 91.7 | 87.9 | 98.5 | 92.4 | 93.6 | 97.7 | 105 | 96.6 | 105 | 109 | 96.7 | 100 | 117 | 110 | 97.8 | 101 | 94.2 | 93.6 | 99.2 | 101 | 102 | 100 | 97.9 | 99 | 0 | 0 | 0 | 0 | 0 |
| C[C@]12C=CC(=O)C=C1CC[C@@H]1[C@@H]2CC[C@]2(C)OC(=O)CC[C@@H]12 [Testolactone] | > 10 | > 10 | > 10 | > 10 | > 10 | 94 | 97.1 | 87.1 | 91.1 | 93.8 | 98.5 | 97.3 | 101 | 99.5 | 105 | 66.7 | 103 | 93.1 | 94.1 | 111 | 95.8 | 98.2 | 95.4 | 102 | 91.8 | 98.5 | 91.3 | 94.9 | 88.1 | 96.8 | 0 | 0 | 0 | 0 | 0 |
| CCCCCCCCCCC(=O)O[C@H]1CC[C@H]2[C@@H]3CCC4=CC(=O)CC[C@]4(C)[C@H]3CC[C@]12C [Testosterone (undecanoate)] | > 10 | > 10 | > 10 | > 10 | > 10 | 87.3 | 92.9 | 104 | 96.7 | 91.5 | 103 | 94.7 | 96.5 | 94.4 | 100 | 95.6 | 106 | 92.4 | 99.4 | 96.9 | 99.8 | 94.4 | 102 | 99.4 | 97.7 | 98.5 | 97.2 | 99.2 | 95.5 | 94.9 | 0 | 0 | 0 | 0 | 0 |
| O=C(c1cccc(Br)c1)N1CCC(N2CCCC2)CC1 [UNC926] | > 10 | > 10 | > 10 | > 10 | > 10 | 99.8 | 98.4 | 102 | 100 | 92.8 | 93.7 | 90.2 | 113 | 92.6 | 96.4 | 100 | 104 | 90.4 | 104 | 108 | 102 | 97.2 | 99.5 | 102 | 101 | 90.9 | 101 | 91.5 | 96.4 | 107 | 0 | 0 | 0 | 0 | 0 |
| O=C(c1ccc(C(=O)N2CCC(N3CCCC3)CC2)c(Nc2ccccc2)c1)N1CCC(N2CCCC2)CC1 [UNC1215] | > 10 | > 10 | > 10 | > 10 | > 10 | 108 | 97.7 | 100 | 110 | 94.1 | 105 | 111 | 106 | 93.4 | 101 | 98.6 | 99.2 | 96.7 | 98 | 103 | 104 | 102 | 100 | 97.9 | 105 | 94 | 95.9 | 101 | 99.6 | 99.9 | 0 | 0 | 0 | 0 | 0 |
